From patent US20210198284A1, “GOLD COMPOSITIONS AND METHODS OF USE THEREOF” (THE UNIVERSITY OF MASSACHUSETTS, priority 2018, published 2021)

Assays:
[1] = Log P determination (n-octanol/water, FAAS); conditions: n-octanol/water, gold by FAAS; for logP: Log P
Experimental: Log P Determination: Calibration curves. Milli-Q Water (150 mL) was added to n-octanol (150 mL), and the mixture was stirred for 3 days to allow both phases to reach saturation. The gold standard solution (1000 ppm Au in hydrochloric acid, Fisher Scientific) was diluted to 1, 2, 3, 4 and 5 ppm with n-octanol-saturated water, and the absorbance of the resulting solutions was measured by flame atomic absorption spectroscopy (FAAS, Agilent Technology 200 Series AA, equipped with a gold HC Lamp-Au coded). The absorbance data were plotted against Au concentration, and the resulting calibration curve was used for determining the concentration of the analogs in the aqueous phase.
To construct the standard calibration curve of the Au concentration in the n-octanol phase, compound 27 was used. The Au concentration in compound 27 was first calibrated against the aqueous gold standard. For this, 0.440 mg of compound 27 was weighed on a Sartorius MC5 microbalance, and then added to 22 mL of n-octanol-saturated water. […] For this, solutions of varying concentrations (0.99, 2.47, 4.94, 5.93, 9.88 ppm) of compound 27 in water-saturated n-octanol were prepared. The absorbance was measured by FAAS, and the data were plotted against the Au concentration to provide a second calibration curve, which was used for determining the Au concentration of the analogs in the n-octanol phase.
Determination of Au concentrations: Method 1. 0.5 to 1 mg of compound was weighed into a 2-mL Eppendorf tube containing 2 mL of n-octanol-saturated water. After shaking for about 4 h, the solution was centrifuged at 6000 rpm for 3 min. 1 mL of the supernatant was transferred to a new tube containing 1 mL of water-saturated n-octanol, and the mixture was shaken for 1 h. After centrifugation at 6000 rpm for 5 min, the two layers were collected and the gold concentration in each layer was determined by FAAS by comparing the absorbance to the first and second calibration curves.
Determination of Au concentrations: Method 2. […] For Method 2, 0.6 to 1 mg of compound was weighed into a 2-mL Eppendorf tube containing 1 mL of n-octanol-saturated water and 1 mL of water-saturated n-octanol. After shaking for 3-4 h, the mixture was centrifuged, and all liquid was transferred to a 15-mL tube. The liquid was then diluted with 2 mL of n-octanol-saturated saturated water and 2 mL of water-saturated n-octanol, and the mixture was shaken for another hour. After centrifugation at 6000 rpm for 5 min, the two layers were collected and the gold concentration in each layer was determined by FAAS by comparing the absorbance to the first and second calibration curves.
Log P was calculated as follows: log P=log[compound]oct/[compound]water

E. cloacae NCTC 13405 = experiment: Antibacterial assay, MIC/MBC by broth microdilution (CLSI); type: cell-based; conditions: for activity in words: E. cloacae
Experimental: (§1) Antibacterial assay. The minimum inhibitory concentrations (MICs) and the minimum bactericidal concentrations (MBCs) were determined by the broth microdilution method as described in the CLSI (The Clinical & Laboratory Standards Institute) guidelines (Performance standards for antimicrobial susceptibility testing: Clinical and Laboratory Standards Institute (CLSI), Twenty-Fifth informational supplement. Document M100-S25: […]; Vol. 35). All bacterial strains were cultured in cation-adjusted Muller Hinton broth (CAMHB) up to log-phase and then diluted to give a concentration of 7.5×10^5 CFU/mL. The gold complexes were dissolved in DMSO or water as stock solutions, which were then serially diluted two-fold in a 96-well plate. Aliquots (100 μL) of the dilutions were mixed with equal volumes of the bacterium suspension in a 96 well plate (in triplicates). The plates were incubated at 37° C. for 18 h without shaking. Negative and positive controls were included in the same well plate with wells having the culture medium only and bacteria solution only, respectively. The sample concentration that gave inhibition values above 90% were determined as MICs as calculated from absorbance values at 600 nm (OD600) obtained using a Tecan SPARK IOM plate reader. To determine minimum bactericidal concentrations (MBCs), agar plates were treated with 5 μL sample solutions from each well, and then incubated at 37° C. for 18 h without shaking. The sample concentration that gave no colony formed on agar plates were determined as MBCs.
(§2) Selection of bacteria. The ESKAPE pathogens were chosen as they are responsible for the majority of nosocomial infections and also as they provide a good scope of strains including both Gram-negative and Gram-positive species. A. baumannii NCTC 13420 was originally identified in 24 hospitals in the UK during 2000-2003, which produced OXA-51-like β-lactamases, and was highly resistant to ampicillin, piperacillin, piperacillin/tazobactam, ceftazidime, cefotaxime, gentamicin and ciprofloxacin. P. aeruginosa NCTC13437 produces VIM-10 metallo-carbapenemase and VEB-1 (Vietnamese extended-spectrum beta-lactamase). Wild-type strain E. cloacae NCTC 13405 (originally named E. cloacae 684) was isolated from patients at the London Hospital during 1982-1983. This strain has inducible AmpC β-lactamase and is resistant to ampicillin/amoxicillin and cefoxitin. K. pneumoniae ATCC 700603 was isolated from the urine of a hospitalized patient in Richmond, Va. in 1994, and it produces SHV-18 extended spectrum beta-lactamase (ESBL). JE2 (USA300) is a methicillin-resistant S. aureus (MRSA) strain, also resistant to beta-lactams, ciprofloxacin, tetracycline, macrolides (erythromycin), lincosamides (clindamycin), streptogramin B, and mupirocin. E. faecium ATCC 700221, a positive fecal VRE (vancomycin-resistant enterococcus) isolate, is resistant to several antibiotics including vancomycin and teicoplanin. The quality control strain, Gram-negative E. coli ATCC 25922, was included in all assays and validated with ciprofloxacin and […].

E. coli ATCC 25922 = experiment: as above; type: cell-based; conditions: repeated twice, a/b = both values
Experimental: as §1, §2

E. faecalis ATCC 700221 = experiment: as above; type: cell-based; conditions: repeated twice, a/b = both values
Experimental: as §1, §2

P. aeruginosa NCTC 13437 = experiment: as above; type: cell-based; conditions: P. aeruginosa
Experimental: as §1, §2

A. baumannii NCTC 13420 = experiment: as above; type: cell-based; conditions: A. baumannii NCTC 13420; repeated twice, a/b = both values
Experimental: as §1, §2

S. aureus JE2 (USA300) = experiment: as above; type: cell-based; conditions: for MIC values in words: S. aureus
Experimental: as §1, §2

[2] = test system: K. pneumoniae ATCC 700603; experiment: as above; type: cell-based; conditions: K. pneumoniae ATCC 700603; repeated twice, a/b = both values
Experimental: as §1, §2

## CC(=O)OCC1O[C@@H]([S][Au-][P+](c2ccc(C(F)(F)F)cc2)(c2ccc(C(F)(F)F)cc2)c2ccc(C(F)(F)F)cc2)C(OC(C)=O)[C@@H](OC(C)=O)[C@@H]1OC(C)=O (stereo partly drawn) [Compound 40, (2,3,4,6-Tetra-O-acetyl-1-thio-β-D-glucopyranosato)(tris(4-(trifluoromethyl)phenylphosphine)) gold(I)]
[1]
  logP: > 3.55

## CC[P+](CC)(CC)[Au-][S]c1ccc(C(F)(F)F)cc1 [Compound 23, (4-(Trifluromethyl)benzenethiolato)(triethylphosphine) gold(I)]
E. cloacae NCTC 13405
  activity in words: completely diminished the activity
[1]
  logP: > 3
  Log P: >3.18

## CC[P+](CC)(CC)[Au-][S][C@@H]1OC(CO)[C@@H](O)[C@H](O)C1NC(C)=O (stereo partly drawn) [Compound 12, (2-Acetamido-2-deoxy-1-thio-β-D-glucopyranosato)(triethylphosphine) gold(I)]
E. coli ATCC 25922
  MIC: 7/4
[1]
  logP: -0.89

## CCCC[P+](CCCC)(CCCC)[Au-][S][C@@H]1OC(COC(C)=O)[C@@H](OC(C)=O)[C@H](OC(C)=O)C1OC(C)=O (stereo partly drawn) [Compound 36, (2,3,4,6-Tetra-O-acetyl-1-thio-β-D-glucopyranosato)(tri-n-butylphosphine) gold(I)]
E. faecalis ATCC 700221
  MIC: 3/5
[1]
  logP: > 4.32

## CC[P+](CC)(CC)[Au-][S]CCO [Compound 24, (2-Mercaptoethanolato)(triethylphosphine) gold(I)]
E. cloacae NCTC 13405; E. cloacae NCTC 13405, repeated twice, a/b = both values
  MIC: 5/10
P. aeruginosa NCTC 13437
  activity in words: showed activity
[1]
  logP: 1.19

## CC(=O)OCC1O[C@@H]([S][Au-][P+](C)(C)C)C(OC(C)=O)[C@@H](OC(C)=O)[C@@H]1OC(C)=O (stereo partly drawn) [Compound 35, (2,3,4,6-Tetra-O-acetyl-1-thio-β-D-glucopyranosato)(trimethylphosphine) gold(I)]
A. baumannii NCTC 13420
  MIC: 6/13
P. aeruginosa NCTC 13437
  activity in words: four-fold improvement in activity over 15
[1]
  logP: 0.35

## Fc1ccc([P+]([Au-][Cl])(c2ccc(F)cc2)c2ccc(F)cc2)cc1 [Compound 33, (Tris(4-fluorphenyl)phosphine) gold chloride]
E. faecalis ATCC 700221
  MIC: 2/4
[1]
  logP: > 4.04

## CC[P+](CC)(CC)[Au-][S]c1ccc(SCC(=O)NC2[C@H](OC(C)=O)OC(COC(C)=O)[C@@H](OC(C)=O)[C@@H]2OC(C)=O)cc1 (stereo partly shown) [Compound 8]
A. baumannii NCTC 13420
  MIC: 76/19
[1]
  logP: -0.36

## CC[P+](CC)(CC)[Au-][S]CC(=O)OC [Compound 25, (Methyl mercaptoacetatato) (triethylphosphine) gold(I)]
S. aureus JE2 (USA300)
  MIC values in words: nanomolar range
[1]
  logP: 1.75

## C[P+](C)(C)[Au-][Cl] [Compound 28, (Trimethylphosphine) gold chloride]
A. baumannii NCTC 13420
  MIC: 7/13
[2]
  MIC: 7/13
P. aeruginosa NCTC 13437
  activity in words: showed activity
[1]
  logP: 0.16

## COc1ccc([P+]([Au-][S][C@@H]2OC(COC(C)=O)[C@@H](OC(C)=O)[C@H](OC(C)=O)C2OC(C)=O)(c2ccc(OC)cc2)c2ccc(OC)cc2)cc1 (stereo partly drawn) [Compound 38, (2,3,4,6-Tetra-O-acetyl-1-thio-β-D-glucopyranosato)(tris(4-methoxyphenyl)phosphine) gold(I)]
E. faecalis ATCC 700221
  MIC: 2/4
[1]
  logP: > 3.03

## CC(=O)OCC1O[C@@H]([S][Au-][P+](c2ccc(F)cc2)(c2ccc(F)cc2)c2ccc(F)cc2)C(OC(C)=O)[C@@H](OC(C)=O)[C@@H]1OC(C)=O (stereo partly drawn) [Compound 39, (2,3,4,6-Tetra-O-acetyl-1-thio-β-D-glucopyranosato)(tris(4-fluorophenyl)phosphine)gold(I)]
E. faecalis ATCC 700221
  MIC: 2/5
[1]
  logP: > 3.04

## CC[P+](CC)(CC)[Au-][S]CC(F)(F)F [Compound 26, (2,2,2-Trifluoroethanethiolato)(triethylphosphine) gold(I)]
S. aureus JE2 (USA300)
  MIC values in words: nanomolar range
[1]
  logP: 2.08

## CC(=O)OCC1O[C@@H]([S][Au-][P+](c2ccccc2)(c2ccccc2)c2ccccc2)C(OC(C)=O)[C@@H](OC(C)=O)[C@@H]1OC(C)=O (stereo partly drawn) [Compound 37, (2,3,4,6-Tetra-O-acetyl-1-thio-β-D-glucopyranosato)(triphenylphosphine) gold(I)]
S. aureus JE2 (USA300); S. aureus JE2 (USA300), repeated twice, a/b = both values
  MIC: 1/2
[1]
  logP: > 3.87

## CC[P+](CC)(CC)[Au-][S]c1ccc([N+](=O)[O-])cc1 [Compound 22, (4-Nitrobenzenethiolato)(triethylphosphine) gold(I)]
E. cloacae NCTC 13405
  activity in words: completely diminished the activity
S. aureus JE2 (USA300)
  MIC values in words: nanomolar range
[1]
  logP: > 3
  Log P: >3.28

## CC[PH](CC)(CC)[Au][S][C@@H]1OC(COC(C)=O)[C@@H](OC(C)=O)[C@H](OC(C)=O)C1NC(C)=O (stereo partly drawn) [Compound 3, (3,4,6-Tri-O-acetyl-2-N-acetyl-1-thio-β-D-glucopyranosato) (triethylphosphine) gold (1)]
[1]
  logP: 0.26
